Laboratory results: patent publication US12599136B2, “Substituted isophthalic acid diamides and their use as herbicides” (Bayer Aktiengesellschaft, priority 2020, dated 2026)

How the values were obtained:
Type in all cases: in vivo
Abutilon theophrasti [1] = assay: Pre-emergence herbicidal action against ABUTH; conditions: for Pre-emergence action against ABUTH: visual score after 3 weeks vs untreated controls
Procedure, shortened: (§1)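 Seeds sown in sandy loam, soil-covered; compound sprayed on soil surface pre-emergence. Application: WP/EC, 600–800 l/ha, 0.2% wetting agent. Readout: visual % damage at 3 weeks.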

Alopecurus myosuroides [2] = assay: Pre-emergence herbicidal action against ALOMY; conditions: for Pre-emergence action against ALOMY: visual score after 3 weeks vs untreated controls
Procedure, shortened: as §1

Amaranthus retroflexus [3] = assay: Pre-emergence herbicidal action against AMARE; conditions: visual score after 3 weeks vs untreated controls
Procedure, shortened: as §1

Echinochloa crus-galli [4] = assay: Pre-emergence herbicidal action against ECHCG; conditions: for Pre-emergence action against ECHCG: visual score after 3 weeks vs untreated controls
Procedure, shortened: as §1

Matricaria inodora [5] = assay: Pre-emergence herbicidal action against MATIN; conditions: for Pre-emergence action against MATIN: visual score after 3 weeks vs untreated controls
Procedure, shortened: as §1

Pharbitis purpurea [6] = assay: Pre-emergence herbicidal action against PHBPU; conditions: 80 g/ha; visual score after 3 weeks vs untreated controls
Procedure, shortened: as §1

Digitaria sanguinalis [7] = assay: Pre-emergence herbicidal action against DIGSA
Procedure, shortened: as §1

Setaria viridis [8] = assay: Pre-emergence herbicidal action against SETVI
Procedure, shortened: as §1

Veronica persica [9] = assay: Pre-emergence herbicidal action against VERPE
Procedure, shortened: as §1

Viola tricolor [10] = assay: Pre-emergence herbicidal action against VIOTR
Procedure, shortened: as §1

Alopecurus myosuroides [11] = assay: Post-emergence herbicidal action against ALOMY
Procedure, shortened: (§2)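 Sandy loam, greenhouse; treatment 2–3 weeks after sowing, one-leaf stage. Aqueous suspension or emulsion from WP/EC sprayed on foliage (600–800 l/ha, 0.2% wetting agent). Readout: visual % action, ~3 weeks.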

Amaranthus retroflexus [12] = assay: Post-emergence herbicidal action against AMARE; conditions: visual assessment about 3 weeks after treatment
Procedure, shortened: as §2

Avena fatua [13] = assay: Post-emergence herbicidal action against AVEFA; conditions: for Post-emergence action against AVEFA in %: visual assessment about 3 weeks after treatment
Procedure, shortened: as §2

Echinochloa crus-galli [14] = assay: Post-emergence herbicidal action against ECHCG; conditions: visual assessment about 3 weeks after treatment
Procedure, shortened: as §2

Matricaria inodora [15] = assay: Post-emergence herbicidal action against MATIN; conditions: for Post-emergence action against MATIN in %: visual assessment about 3 weeks after treatment
Procedure, shortened: as §2

Digitaria sanguinalis [16] = assay: Post-emergence herbicidal action against DIGSA
Procedure, shortened: as §2

Polygonum convolvulus [17] = assay: Post-emergence herbicidal action against POLCO; conditions: 20 g/ha, visual assessment about 3 weeks after treatment
Procedure: Seeds of monocotyledonous and dicotyledonous weed and crop plants are laid out in sandy loam soil in wood-fiber pots, covered with soil and cultivated in a greenhouse under good growth conditions. 2 to 3 weeks after sowing, the test plants are treated at the one-leaf stage. The compounds of the invention, formulated in the form of wettable powders (WP) or as emulsion concentrates (EC), are then sprayed onto the green parts of the plants in the form of an aqueous suspension or emulsion at a water application rate equivalent to 600 to 800 l/ha, with addition of 0.2% wetting agent. After the test plants have been left to stand in the greenhouse under optimal growth conditions for about 3 weeks, the action of the preparations is assessed visually in comparison to untreated controls (herbicidal action in percent (%): 100% activity=the plants have died, 0% activity=like control plants). […] The tables below illustrate, in an illustrative manner, the post-emergence herbicidal action of the compounds of the invention, the herbicidal activity being stated in percent.

Setaria viridis [18] = assay: Post-emergence herbicidal action against SETVI; conditions: for Post-emergence action against SETVI in %: visual assessment about 3 weeks after treatment
Procedure, shortened: as §2

Viola tricolor [19] = assay: Post-emergence herbicidal action against VIOTR
Procedure, shortened: as §2

Avena fatua [20] = assay: Pre-emergence herbicidal action against AVEFA; conditions: for Pre-emergence action against AVEFA: visual score after 3 weeks vs untreated controls
Procedure, shortened: as §1

Lolium rigidum = assay: Pre-emergence herbicidal action against LOLRI; conditions: 80 g/ha
Procedure, shortened: as §1

Polygonum convolvulus [21] = assay: Pre-emergence herbicidal action against POLCO; conditions: 80 g/ha
Procedure, shortened: as §1

Abutilon theophrasti [22] = assay: Post-emergence herbicidal action against ABUTH
Procedure, shortened: as §2

Pharbitis purpurea [23] = assay: Post-emergence herbicidal action against PHBPU
Procedure, shortened: as §2

Veronica persica [24] = assay: Post-emergence herbicidal action against VERPE; conditions: visual assessment about 3 weeks after treatment
Procedure, shortened: as §2

[25] = comparative experiment, pre-emergence, 20 g a.i./ha
[26] = comparative experiment, 5 g a.i./ha

## CCN(C(=O)c1c(C(F)(F)F)ccc(C(=O)Nc2nnnn2CC)c1C)C1CC1 [Example 2-32]
Abutilon theophrasti [1]; 20 g/ha
  Pre-emergence action against ABUTH: 100%
Abutilon theophrasti [1]; 80 g/ha
  Pre-emergence action against ABUTH: 100%
Alopecurus myosuroides [2]; 80 g/ha
  Pre-emergence action against ALOMY: 90%
Amaranthus retroflexus [3]; 20 g/ha
  Pre-emergence action against AMARE: 100%
Amaranthus retroflexus [3]; 80 g/ha
  Pre-emergence action against AMARE: 100%
Echinochloa crus-galli [4]; 80 g/ha
  Pre-emergence action against ECHCG: 90%
Matricaria inodora [5]; 20 g/ha
  Pre-emergence action against MATIN: 80%
Matricaria inodora [5]; 80 g/ha
  Pre-emergence action against MATIN: 100%
Pharbitis purpurea [6]
  Pre-emergence action against PHBPU: 80%
Digitaria sanguinalis [7]; 20 g/ha
  Pre-emergence action against DIGSA: 100%
Digitaria sanguinalis [7]; 80 g/ha
  Pre-emergence action against DIGSA: 100%
Setaria viridis [8]; 80 g/ha
  Pre-emergence action against SETVI: 100%
Veronica persica [9]; 20 g/ha
  Pre-emergence action against VERPE: 90%
Veronica persica [9]; 80 g/ha
  Pre-emergence action against VERPE: 90%
Viola tricolor [10]; 20 g/ha
  Pre-emergence action against VIOTR: 90%
Viola tricolor [10]; 80 g/ha
  Pre-emergence action against VIOTR: 100%
Alopecurus myosuroides [11]; 5 g/ha
  Post-emergence action against ALOMY: 80%
Alopecurus myosuroides [11]; 20 g/ha
  Post-emergence action against ALOMY: 100%
Amaranthus retroflexus [12]; 5 g/ha
  Post-emergence action against AMARE in %: 100%
Amaranthus retroflexus [12]; 20 g/ha
  Post-emergence action against AMARE in %: 100%
Avena fatua [13]; 20 g/ha
  Post-emergence action against AVEFA in %: 80%
Echinochloa crus-galli [14]; 5 g/ha
  Post-emergence action against ECHCG in %: 90%
Echinochloa crus-galli [14]; 20 g/ha
  Post-emergence action against ECHCG in %: 90%
Matricaria inodora [15]; 5 g/ha
  Post-emergence action against MATIN in %: 80%
Matricaria inodora [15]; 20 g/ha
  Post-emergence action against MATIN in %: 90%
Digitaria sanguinalis [16]; 5 g/ha
  Post-emergence action against DIGSA in %: 90%
Digitaria sanguinalis [16]; 20 g/ha
  Post-emergence action against DIGSA in %: 90%
Polygonum convolvulus [17]
  Post-emergence action against POLCO in %: 80%
Setaria viridis [18]; 20 g/ha
  Post-emergence action against SETVI in %: 90%
Viola tricolor [19]; 5 g/ha
  Post-emergence action against VIOTR in %: 80%
Viola tricolor [19]; 20 g/ha
  Post-emergence action against VIOTR in %: 90%

## CCn1nnnc1NC(=O)c1ccc(C(F)F)c(C(=O)N(C)C)c1Cl [Example 2-154]
Abutilon theophrasti [1]; 20 g/ha
  Pre-emergence action against ABUTH: 100%
Abutilon theophrasti [1]; 80 g/ha
  Pre-emergence action against ABUTH: 100%
Abutilon theophrasti [1]; [25]
  Herbicidal action against ABUTH: 100
Alopecurus myosuroides [2]; 20 g/ha
  Pre-emergence action against ALOMY: 80%
Alopecurus myosuroides [2]; 80 g/ha
  Pre-emergence action against ALOMY: 100%
Alopecurus myosuroides [2]; [25]
  Herbicidal action against ALOMY: 80
Amaranthus retroflexus [3]; 20 g/ha
  Pre-emergence action against AMARE: 100%
Amaranthus retroflexus [3]; 80 g/ha
  Pre-emergence action against AMARE: 100%
Avena fatua [20]; 20 g/ha
  Pre-emergence action against AVEFA: 80%
Avena fatua [20]; 80 g/ha
  Pre-emergence action against AVEFA: 100%
Avena fatua [20]; [25]
  Herbicidal action against AVEFA: 80
Echinochloa crus-galli [4]; 20 g/ha
  Pre-emergence action against ECHCG: 80%
Echinochloa crus-galli [4]; 80 g/ha
  Pre-emergence action against ECHCG: 100%
Echinochloa crus-galli [4]; [25]
  Herbicidal action against ECHCG: 80
Matricaria inodora [5]; 20 g/ha
  Pre-emergence action against MATIN: 90%
Matricaria inodora [5]; 80 g/ha
  Pre-emergence action against MATIN: 100%
Matricaria inodora [5]; [25]
  Herbicidal action against MATIN: 90
Pharbitis purpurea [6]
  Pre-emergence action against PHBPU: 80%
Digitaria sanguinalis [7]; 20 g/ha
  Pre-emergence action against DIGSA: 100%
Digitaria sanguinalis [7]; 80 g/ha
  Pre-emergence action against DIGSA: 100%
Lolium rigidum
  Pre-emergence action against LOLRI: 80%
Polygonum convolvulus [21]
  Pre-emergence action against POLCO: 80%
Setaria viridis [8]; 20 g/ha
  Pre-emergence action against SETVI: 100%
Setaria viridis [8]; 80 g/ha
  Pre-emergence action against SETVI: 100%
Setaria viridis [8]; comparative experiment, 20 g a.i./ha
  Herbicidal action against SETVI: 100
Veronica persica [9]; 80 g/ha
  Pre-emergence action against VERPE: 90%
Viola tricolor [10]; 20 g/ha
  Pre-emergence action against VIOTR: 90%
Viola tricolor [10]; 80 g/ha
  Pre-emergence action against VIOTR: 100%
Abutilon theophrasti [22]; 5 g/ha
  Post-emergence action against ABUTH: 100%
Abutilon theophrasti [22]; 20 g/ha
  Post-emergence action against ABUTH: 100%
Alopecurus myosuroides [11]; 5 g/ha
  Post-emergence action against ALOMY: 90%
Alopecurus myosuroides [11]; 20 g/ha
  Post-emergence action against ALOMY: 90%
Alopecurus myosuroides [11]; [26]
  Herbicidal action against ALOMY: 90
Amaranthus retroflexus [12]; 5 g/ha
  Post-emergence action against AMARE in %: 90%
Amaranthus retroflexus [12]; 20 g/ha
  Post-emergence action against AMARE in %: 100%
Avena fatua [13]; 5 g/ha
  Post-emergence action against AVEFA in %: 80%
Avena fatua [13]; 20 g/ha
  Post-emergence action against AVEFA in %: 100%
Avena fatua [13]; [26]
  Herbicidal action against AVEFA: 80
Echinochloa crus-galli [14]; 5 g/ha
  Post-emergence action against ECHCG in %: 80%
Echinochloa crus-galli [14]; 20 g/ha
  Post-emergence action against ECHCG in %: 90%
Matricaria inodora [15]; 5 g/ha
  Post-emergence action against MATIN in %: 80%
Matricaria inodora [15]; 20 g/ha
  Post-emergence action against MATIN in %: 90%
Matricaria inodora [15]; [26]
  Herbicidal action against MATIN: 80
Pharbitis purpurea [23]; 20 g/ha, visual assessment about 3 weeks after treatment
  Post-emergence action against PHBPU in %: 80%
Pharbitis purpurea [23]; [26]
  Herbicidal action against PHBPU: 70
Digitaria sanguinalis [16]; 5 g/ha
  Post-emergence action against DIGSA in %: 90%
Digitaria sanguinalis [16]; 20 g/ha
  Post-emergence action against DIGSA in %: 90%
Polygonum convolvulus [17]
  Post-emergence action against POLCO in %: 90%
Setaria viridis [18]; 5 g/ha
  Post-emergence action against SETVI in %: 90%
Setaria viridis [18]; 20 g/ha
  Post-emergence action against SETVI in %: 100%
Setaria viridis [18]; [26]
  Herbicidal action against SETVI: 90
Veronica persica [24]; 5 g/ha
  Post-emergence action against VERPE in %: 80%
Veronica persica [24]; 20 g/ha
  Post-emergence action against VERPE in %: 90%
Viola tricolor [19]; 5 g/ha
  Post-emergence action against VIOTR in %: 90%
Viola tricolor [19]; 20 g/ha
  Post-emergence action against VIOTR in %: 100%
Viola tricolor [19]; [26]
  Herbicidal action against VIOTR: 80
